Source: ChEMBL document CHEMBL4373739, “6-Cinnamoyl-4-arylaminothienopyrimidines as highly potent cytotoxic agents: Design, synthesis and structure-activity relationship studies” (Eur J Med Chem, 2020)
The source made the active and inactive calls. The rule behind the calls is not given here.

Tests used:
HepG2 = test: Antiproliferative activity against human HepG2 cells incubated for 48 hrs by MTT assay; assay type: functional, cell-based; conditions: HepG2, 48 h
MDA-MB-231 = test: Antiproliferative activity against human MDA-MB-231 cells incubated for 48 hrs by MTT assay; assay type: functional, cell-based; conditions: MDA-MB-231, 48 h
MCF7 = test: Antiproliferative activity against human MCF7 cells incubated for 48 hrs by MTT assay; assay type: functional, cell-based; conditions: MCF7, 48 h
HeLa [1] = test: Antiproliferative activity against human HeLa cells incubated for 48 hrs by MTT assay; assay type: functional, cell-based
PC-3 = test: Antiproliferative activity against human PC3 cells incubated for 48 hrs by MTT assay; assay type: functional, cell-based; conditions: PC-3, 48 h
A549 = test: Antiproliferative activity against human A549 cells incubated for 48 hrs by MTT assay; assay type: functional, cell-based; conditions: A549, 48 h
HCT-116 = test: Antiproliferative activity against human HCT116 cells incubated for 48 hrs by MTT assay; assay type: functional, cell-based; conditions: HCT-116, 48 h
HeLa [2] = test: Induction of apoptosis in human HeLa cells assessed as early apoptotic cells after 48 hrs by AnnexinV-APC/propidium iodide staining based FACScalibur flow cytometry analysis (reference value: 3.23 %); assay type: functional
SK-BR-3 = test: Antiproliferative activity against human SKBR3 cells incubated for 48 hrs by MTT assay; assay type: functional, cell-based; conditions: SK-BR-3, 48 h
U-87 MG = test: Antiproliferative activity against human U87 cells incubated for 48 hrs by MTT assay; assay type: functional, cell-based, U-87MG ATCC
HeLa [3] = test: Induction of apoptosis in human HeLa cells assessed as late apoptotic cells after 48 hrs by AnnexinV-APC/propidium iodide staining based FACScalibur flow cytometry analysis (reference value: 4.30 %); assay type: functional
HeLa [4] = test: Induction of apoptosis in human HeLa cells assessed as live cells after 48 hrs by AnnexinV-APC/propidium iodide staining based FACScalibur flow cytometry analysis (reference value: 92 %); assay type: functional
SW480 = test: Antiproliferative activity against human SW480 cells incubated for 48 hrs by MTT assay; assay type: functional, cell-based; conditions: SW480, 48 h
HeLa [5] = test: Induction of apoptosis in human HeLa cells assessed as necrotic cells after 48 hrs by AnnexinV-APC/propidium iodide staining based FACScalibur flow cytometry analysis (reference value: 0.457 %); assay type: functional
SK-OV-3 = test: Antiproliferative activity against human SKOV3 cells incubated for 48 hrs by MTT assay; assay type: functional, cell-based; conditions: SK-OV-3, 48 h
HeLa [6] = test: Induction of apoptosis in human HeLa cells assessed as late apoptotic cells at IC50 concentration after 48 hrs by AnnexinV-APC/propidium iodide staining based FACScalibur flow cytometry analysis (reference value: 4.30 %); assay type: functional
HeLa [7] = test: Induction of apoptosis in human HeLa cells assessed as early apoptotic cells at IC50 concentration after 48 hrs by AnnexinV-APC/propidium iodide staining based FACScalibur flow cytometry analysis (reference value: 3.23 %); assay type: functional
[8] = target: Epidermal growth factor receptor (Homo sapiens) (UniProt P00533); test: Inhibition of EGFR in human HeLa cells assessed as effect on AKT phosphorylation at IC50 concentration measured upto 48 hrs by Western blot analysis; assay type: cell-based
Sequence of Epidermal growth factor receptor (Homo sapiens) (P00533 whole entry): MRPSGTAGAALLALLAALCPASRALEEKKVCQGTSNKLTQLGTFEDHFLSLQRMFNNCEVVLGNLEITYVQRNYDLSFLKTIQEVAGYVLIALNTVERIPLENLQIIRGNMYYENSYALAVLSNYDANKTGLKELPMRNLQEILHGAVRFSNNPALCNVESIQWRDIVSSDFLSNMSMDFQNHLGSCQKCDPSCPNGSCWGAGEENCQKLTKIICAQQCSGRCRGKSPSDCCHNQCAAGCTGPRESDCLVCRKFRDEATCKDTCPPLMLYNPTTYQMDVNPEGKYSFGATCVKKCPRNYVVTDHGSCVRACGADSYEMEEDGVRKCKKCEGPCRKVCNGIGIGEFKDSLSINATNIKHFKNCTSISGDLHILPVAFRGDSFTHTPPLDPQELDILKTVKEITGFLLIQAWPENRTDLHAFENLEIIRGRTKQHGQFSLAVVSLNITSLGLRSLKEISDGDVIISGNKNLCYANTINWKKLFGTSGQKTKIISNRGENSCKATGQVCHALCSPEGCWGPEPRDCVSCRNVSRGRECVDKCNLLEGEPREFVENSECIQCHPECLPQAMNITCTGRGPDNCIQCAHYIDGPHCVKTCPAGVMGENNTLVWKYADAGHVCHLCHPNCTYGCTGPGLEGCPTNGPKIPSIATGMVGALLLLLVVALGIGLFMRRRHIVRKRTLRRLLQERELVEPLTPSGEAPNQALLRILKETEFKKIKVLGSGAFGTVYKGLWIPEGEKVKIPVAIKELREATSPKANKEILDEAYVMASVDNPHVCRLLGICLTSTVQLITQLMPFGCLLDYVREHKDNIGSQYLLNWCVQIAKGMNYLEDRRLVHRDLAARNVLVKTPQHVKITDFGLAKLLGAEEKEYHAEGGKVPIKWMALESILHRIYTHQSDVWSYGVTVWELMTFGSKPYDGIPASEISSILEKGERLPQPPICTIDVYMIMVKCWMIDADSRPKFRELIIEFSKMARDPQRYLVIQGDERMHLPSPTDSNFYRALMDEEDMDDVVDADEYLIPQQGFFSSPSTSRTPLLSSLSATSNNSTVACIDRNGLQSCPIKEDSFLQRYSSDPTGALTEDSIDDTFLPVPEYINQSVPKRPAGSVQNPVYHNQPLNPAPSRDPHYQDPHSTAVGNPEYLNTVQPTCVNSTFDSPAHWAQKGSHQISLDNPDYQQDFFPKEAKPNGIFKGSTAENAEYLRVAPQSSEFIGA

[9] = Selectivity index, ratio of IC50 for human MRC5 to IC50 for human A549; assay type: toxicity; conditions: MRC5 cells and A549 cells, read-out: Ratio IC50
[10] = target: Epidermal growth factor receptor (Homo sapiens) (UniProt P00533); test: Inhibition of EGFR phosphorylation in human HeLa cells at IC50 concentration measured upto 48 hrs by Western blot analysis; assay type: cell-based
HeLa [11] = test: Induction of cell cycle arrest in human HeLa cells assessed as increase in cell population at sub-G1 phase at IC50 concentration after 48 hrs by RNase/propidium iodide staining based flow cytometry analysis; assay type: functional
[12] = target: Epidermal growth factor receptor (Homo sapiens) (UniProt P00533); test: Inhibition of EGFR in human HeLa cells assessed as reduction in ERK 1/2 phosphorylation at IC50 concentration measured upto 48 hrs by Western blot analysis; assay type: cell-based
HeLa [13] = test: Induction of apoptosis in human HeLa cells assessed as necrotic cells at IC50 concentration after 48 hrs by AnnexinV-APC/propidium iodide staining based FACScalibur flow cytometry analysis (reference value: 0.457 %); assay type: functional
MRC5 = test: Cytotoxicity against human MRC5 cells incubated for 48 hrs by MTT assay; assay type: cell-based; conditions: MRC5, 48 h
HeLa [14] = test: Induction of apoptosis in human HeLa cells assessed as live cells at IC50 concentration after 48 hrs by AnnexinV-APC/propidium iodide staining based FACScalibur flow cytometry analysis (reference value: 92 %); assay type: functional

| Structure (SMILES) | IC50 (HepG2) [µM] | IC50 (MDA-MB-231) [µM] | IC50 (MCF7) [µM] | IC50 (HeLa [1]) [µM] | IC50 (PC-3) [µM] | IC50 (A549) [µM] | also measured |
| --- | --- | --- | --- | --- | --- | --- | --- |
| O=C(/C=C/c1ccccc1)Nc1cc2c(Nc3ccc(F)c(Cl)c3)ncnc2s1 | 22.8 | 7.6 | 14.3 | 2.14 | 0.7 | 11.2 | – |
| C#Cc1cccc(Nc2ncnc3cc(OCCOC)c(OCCOC)cc23)c1 [ERLOTINIB] | 28.8 | 8.3 | 11.7 | 7.48 | 7 | 3.8 | IC50 (HCT-116): 23.3 µM; Activity (HeLa [2]): 26.2%; IC50 (SK-BR-3): 49.3 µM; IC50 (U-87 MG): 31.9 µM; Activity (HeLa [3]): 15%; Activity (HeLa [4]): 52.7%; IC50 (SW480): 23 µM; Activity (HeLa [5]): 6.06%; IC50 (SK-OV-3): 61.8 µM |
| O=C(/C=C/c1ccccc1)Nc1cc2c(Nc3cccc(Cl)c3F)ncnc2s1 | 44.6 | 3.93 | 93.9 | 34.9 | 0.4 | 26.2 | – |
| COc1ccc(/C=C/C(=O)Nc2cc3c(Nc4cc(Cl)cc(Cl)c4)ncnc3s2)cc1 | 41.8 | 1.97 | 75.6 | 43.3 | 0.45 | 21.9 | – |
| O=C(/C=C/c1ccc(O)cc1)Nc1cc2c(Nc3ccc(Cl)c(Cl)c3)ncnc2s1 | 42.9 | 1.98 | 60.6 | 24.8 | 0.3 | 34.3 | – |
| C#Cc1cccc(Nc2ncnc3sc(NC(=O)/C=C/c4ccccc4)cc23)c1 | 58.1 | 5.05 | 38.4 | 4.64 | 0.4 | 10.1 | – |
| O=C(/C=C/c1ccccc1)Nc1cc2c(Nc3ccc(Cl)c(Cl)c3)ncnc2s1 | 30.1 | 4.4 | 15.3 | 0.43 | 0.48 | 7.6 | – |
| O=C(/C=C/c1ccccc1)Nc1cc2c(Nc3cc(Cl)cc(Cl)c3)ncnc2s1 | 21.8 | 11.5 | 5.8 | 0.004 | 0.39 | 0.04 | Activity (HeLa [6]): 11%; Activity (HeLa [7]): 42.8%; IC50 (HCT-116): 3.83 µM; IC50 (SK-BR-3): 6.46 µM; inhibition [8]: inactive; selectivity ratio [9]: 720; inhibition [10]: Active; IC50 (U-87 MG): 4.49 µM; Activity (HeLa [11]): Active; inhibition [12]: Active; Activity (HeLa [13]): 0.448%; IC50 (MRC5): 28.8 µM; IC50 (SW480): 4.93 µM; IC50 (SK-OV-3): 10.9 µM; Activity (HeLa [14]): 45.8% |
| N#Cc1cccc(Nc2ncnc3cc(NC(=O)/C=C/c4ccccc4)sc23)c1 | 15.9 | 1.04 | > 100 | 7.22 | 0.54 | 17.2 | – |
| COc1ccc(/C=C/C(=O)Nc2cc3c(Nc4ccc(Cl)c(Cl)c4)ncnc3s2)cc1 | 30.6 | 16.6 | 20.1 | 0.033 | 0.79 | 3.32 | Activity (HeLa [6]): 15.5%; Activity (HeLa [7]): 15.7%; IC50 (HCT-116): 7.41 µM; IC50 (SK-BR-3): 11.9 µM; selectivity ratio [9]: 5.6; IC50 (U-87 MG): 4.4 µM; Activity (HeLa [11]): Active; Activity (HeLa [13]): 2%; IC50 (MRC5): 18.7 µM; IC50 (SW480): 5.75 µM; IC50 (SK-OV-3): 10.7 µM; Activity (HeLa [14]): 66.8% |

The next compounds have a lower IC50 (HepG2) than those just listed; values first:

| IC50 (HepG2) [µM] | IC50 (MDA-MB-231) [µM] | IC50 (MCF7) [µM] | IC50 (HeLa [1]) [µM] | IC50 (PC-3) [µM] | IC50 (A549) [µM] | Structure (SMILES) | also measured |
| --- | --- | --- | --- | --- | --- | --- | --- |
| 13.9 | 2.6 | 29.1 | 20.6 | 0.1 | 22.7 | COc1ccc(/C=C/C(=O)Nc2cc3ncnc(Nc4ccc(F)c(Cl)c4)c3s2)cc1 | – |
| 10.7 | 1 | > 100 | 3.21 | 0.22 | 12.5 | O=C(/C=C/c1ccccc1)Nc1cc2ncnc(Nc3cc(Cl)cc(Cl)c3)c2s1 | – |
| 15.4 | 2.34 | 75.6 | 20.5 | 0.7 | 26.2 | C#Cc1cccc(Nc2ncnc3cc(NC(=O)/C=C/c4ccccc4)sc23)c1 | – |
| 13.4 | 2.41 | > 100 | 10.7 | 0.26 | 19.4 | O=C(/C=C/c1ccccc1)Nc1cc2ncnc(Nc3ccc(Cl)c(Cl)c3)c2s1 | – |
| 10.6 | 2.1 | 30.9 | 2.81 | 0.2 | 6.67 | O=C(/C=C/c1ccccc1)Nc1cc2ncnc(Nc3ccc(F)c(Cl)c3)c2s1 | – |
